{
  "source": "paper PMC8117417",
  "about": "“Novel Trifluoromethyl Pyrimidinone Compounds With Activity Against Mycobacterium tuberculosis” (Frontiers in Chemistry, 2021)",
  "key": {"HepG2 human liver cells": {"tested_on": "HepG2 human liver cells", "assay": "Cytotoxicity against HepG2 cells (CellTiter-Glo)", "type": "cell-based", "settings": "Homo sapiens, HepG2, 72 h, concentration required to inhibit growth of HepG2 cells by 50%; 72 h exposure", "experimental": "Cytotoxicity was measured after 72 h of compound exposure at 37°C and 5% CO2 using CellTiter-Glo (Promega)."}, "[1]": {"tested_on": "Mycobacterium smegmatis mc^2155", "assay": "Spectrum: MIC99 on solid medium, agar serial dilution", "type": "cell-based", "parameters": "unit not given here", "settings": "minimum concentration required to reduce CFUs by 99%, two independent runs"}, "Escherichia coli DH5α": {"tested_on": "Escherichia coli DH5α", "assay": "Spectrum: MIC99 on solid medium, agar serial dilution", "type": "cell-based", "parameters": "unit not given here", "settings": "minimum concentration required to reduce CFUs by 99%, two independent runs"}, "[2]": {"tested_on": "Pseudomonas aeruginosa BAA 47", "assay": "Spectrum: MIC99 on solid medium, agar serial dilution", "type": "cell-based", "parameters": "unit not given here", "settings": "minimum concentration required to reduce CFUs by 99%, two independent runs"}, "K. pneumoniae": {"tested_on": "K. pneumoniae", "assay": "Spectrum: MIC99 on solid medium, agar serial dilution", "type": "cell-based", "parameters": "unit not given here", "settings": "minimum concentration required to reduce CFUs by 99%, two independent runs", "experimental": "Minimum inhibitory concentration to inhibit growth of 99% (MIC99) on solid medium was determined using the agar serial dilution method. Late log phase cultures were plated at ~10^5 colony-forming units (CFU)/mL onto solid medium containing 2-fold serial dilutions of compounds. The MIC99 is defined as the lowest concentration with ≤1% growth."}, "[3]": {"tested_on": "Staphylococcus aureus RN4220", "assay": "Spectrum: MIC99 on solid medium, agar serial dilution", "type": "cell-based", "parameters": "unit not given here", "settings": "minimum concentration required to reduce CFUs by 99%, values of two independent runs"}, "[4]": {"tested_on": "Bacillus subtilis Marburg", "assay": "Spectrum: MIC99 on solid medium, agar serial dilution", "type": "cell-based", "parameters": "unit not given here", "settings": "minimum concentration required to reduce CFUs by 99%, values of two independent runs"}, "[5]": {"tested_on": "Saccharomyces cerevisiae Y187", "assay": "Spectrum: MIC99 on solid medium, agar serial dilution", "type": "cell-based", "parameters": "unit not given here", "settings": "minimum concentration required to reduce CFUs by 99%, values of two independent runs"}, "M. tuberculosis H37Rv": {"tested_on": "M. tuberculosis H37Rv", "assay": "Minimum inhibitory concentration (IC90) against fluorescent M. tuberculosis in liquid culture"}},
  "note": "Values joined by “and” are separate entries in the source; they are usually repeats but may differ in a detail not shown here. Identical values can stand only once.",
  "data": [
    {"smiles": "O=c1[nH]c(-c2ccccn2)nc(C(F)(F)F)c1Cc1ccc(F)cc1", "note": "[Compound 5, 5-(4-Fluorobenzyl)-2-(Pyridin-2-yl)-6-(Trifluoromethyl)Pyrimidin-4(3H)-One]", "values": [
      {"measurement": "IC50", "setting": "HepG2 human liver cells", "result": "3200 ± 1500", "unit": "nM"},
      {"measurement": "MIC99 M. smegmatis", "setting": "[1]", "result": ">100"},
      {"measurement": "MIC99 E. coli", "setting": "Escherichia coli DH5α", "result": ">100"},
      {"measurement": "MIC99 P. aeruginosa", "setting": "[2]", "result": ">100"},
      {"measurement": "MIC99 K. pneumoniae", "setting": "K. pneumoniae", "result": ">100"},
      {"measurement": "MIC99 S. aureus", "setting": "[3]", "result": "1.6, 1.6"},
      {"measurement": "MIC99 B. subtilis", "setting": "[4]", "result": "12.5 and 6.3"},
      {"measurement": "MIC99 S. cerevisiae", "setting": "[5]", "result": "3.1, 3.1"},
      {"measurement": "melting point", "result": "183 to 185", "unit": "°C"},
      {"measurement": "MIC", "setting": "M. tuberculosis H37Rv; MTB IC90 assay, Figure 1 primary hits and reference drugs in this assay", "result": "1.7 ± 0.41", "unit": "µM"},
      {"measurement": "IC90", "setting": "M. tuberculosis H37Rv; read-out: MTB IC90, concentration required to inhibit M. tuberculosis growth by 90%, aerobic culture, 5 days, 7H9-OADC-Tw", "result": "1700 ± 410", "unit": "nM"}
    ]}
  ]
}
